29 molecules from patent US7563793B2, “Pyrrolo[1,2-a]quinoxalin-5-(4H)-yl)sulfonyls and carbonyls and their use as estrogenic agents” (Wyeth, priority 2004, dated 2009) can be followed below.

Read-outs that look alike come from different tables or passages of the source.

Assay type in all cases: cell-based, human
For one test, the system named is creatine kinase. In words: Creatine kinase assay in Ad5-wt-ER infected HAECT-1 cells. Particulars: for EC50 / Emax: Homo sapiens; for EC50: HAECT1, CK stimulation, N/O = activity not observed at concentrations tested, read-out: CK IC50; for Emax: HAECT1, relative to maximal stimulation observed with E2, read-out: CK Efficacy; for CK Efficacy: relative to maximal stimulation observed with E2. The method, then:
(§1) After four hours, cells were washed with EBM-BSA and incubated overnight in the same medium. […] After two hours, cells were washed and incubated at 34° C. for 1 hour. […] Control (no ER infection) cells were processed as above without Ad5-wt-hERα virus infection. […] Cells were subsequently washed with 300 μl of Dulbecco's phosphate buffered saline and lysed in 50 μl of Cell Culture Lysis Reagent (Promega). Luciferase was determined on a Wallac Victor^2 Luminometer (Gaithersburg, Md.) using 10 μl of lysate and mixing with 100 lμof Promega Luciferase Assay reagent. […] For IC50 and EC50 calculations, mean IL-6, luciferase or CK values versus log10 of the compound concentration were fitted to a four parameter logistic equation. The IC50/EC50 value, ‘Hill slope’, upper and lower limits of the curve were iteratively estimated.

In a further test the test system is IL-6. Kind of test: IL-6 assay (ELISA) in Ad5-wt-ER infected HAECT-1 cells (IL-1β induced). The settings on record: for Emax: HAECT1, relative to maximal inhibition observed with E2, read-out: IL-6 Efficacy; for IL-6 Efficacy: relative to maximal inhibition observed with E2. The method, then: as §1
A general note: In an ELISA, binding on a coated surface is turned into a signal by an enzyme label.

The next test has as its system ER/Nf-kB. Kind of test: ER/NF-κB luciferase reporter assay in Ad5-wt-ER infected HAECT-1 cells (IL-1β induced). The settings on record: for ER/Nf-kB Efficacy: relative to maximal inhibition observed with E2. How it is done: as §1
(In general: A reporter such as luciferase makes a cellular process visible.)

One may read the IC50 as the concentration at which inhibition is half-maximal. Low readings indicate higher potency, high ones lower potency.

Take `CCC1c2cccn2-c2ccc(Br)cc2N1C(=O)c1cccc(O)c1` (stereo not drawn) [Example 112, 3-[(7-bromo-4-ethylpyrrolo[1,2-a]quinoxalin-5(4H)-yl)carbonyl]phenol]: in the test on creatine kinase, the EC50 was 207 nM and the Emax turned out to be 21%. In the test with IL-6 (Homo sapiens, HAECT1), this molecule yielded an IC50 of 152 nM. Further, in the test on IL-6 (Homo sapiens), the Emax is 88%.
Regarding `CCC1c2cccn2-c2ccccc2N1S(=O)(=O)c1ccc(O)c(C)c1` (stereo not drawn) [Example 64, 4-[(4-ethylpyrrolo[1,2-a]quinoxalin-5-(4H)-yl)sulfonyl]-2-methylphenol], in the test on ER/Nf-kB, half-maximal inhibition (IC50) required 202 nM and the “ER/Nf-kB Efficacy” value is given as 89%.
As to `C[C@H]1c2cccn2-c2ccc(Br)cc2N1C(=O)c1cccc(O)c1` [107 (S), 3-{[(4S)-7-bromo-4-methylpyrrolo[1,2-a]quinoxalin-5(4H)-yl]carbonyl}phenol], in the test on IL-6 (Homo sapiens, HAECT1), the IC50 turned out to be 1060 nM. Further, the Emax with IL-6 (Homo sapiens) came out at 66%.
Regarding `CC(C)(C)C1c2cccn2-c2ccc(Br)cc2N1C(=O)c1ccc(O)cc1` (stereo not drawn) [Example 116, 4-[(7-bromo-4-tert-butylpyrrolo[1,2-a]quinoxalin-5(4H)-yl)carbonyl]phenol], half-maximal inhibition in the test with IL-6 (Homo sapiens, HAECT1) (IC50) was put at 207 nM. In the test on IL-6 (Homo sapiens), the Emax came to 90%.
In the case of `CCC1c2cccn2-c2ccc(Br)cc2N1C(=O)c1ccc(O)cc1O` (stereo not drawn) [Example 113, 4-[(7-bromo-4-ethylpyrrolo[1,2-a]quinoxalin-5(4H)-yl)carbonyl]benzene-1,3-diol], in the test on creatine kinase, the EC50 is 25 nM and the Emax was 28%. Moreover, in the test with IL-6 (Homo sapiens, HAECT1), half-maximal inhibition (IC50) was put at 9.5 nM. The Emax with IL-6 (Homo sapiens) turned out to be 101%.
As for `CCOC(=O)Oc1ccc(S(=O)(=O)N2c3c(C)cccc3-n3cccc3C2CC)cc1` (stereo not drawn) [Example 66, ethyl 4-[(4-ethyl-6-methylpyrrolo[1,2-a]quinoxalin-5-(4H)-yl)sulfonyl]phenyl carbonate], in the test with ER/Nf-kB, the IC50 came to 320 nM and the “ER/Nf-kB Efficacy” value was determined as 98%.
In the test with IL-6 (Homo sapiens, HAECT1), `C[C@H]1c2cccn2-c2ccc(F)cc2N1C(=O)c1ccc(O)cc1` [123 (S), 4-{[(4S)-7-fluoro-4-methylpyrrolo[1,2-a]quinoxalin-5(4H)-yl]carbonyl}phenol] returned an IC50 of 606 nM. In the test on IL-6 (Homo sapiens), the Emax stood at 47%.
In turn, `CC(C)(C)[C@H]1c2cccn2-c2ccc(Br)cc2N1C(=O)c1cccc(O)c1` [115 (S), 3-{[(4S)-7-bromo-4-tert-butylpyrrolo[1,2-a]quinoxalin-5(4H)-yl]carbonyl}phenol] had an IC50 in the test with IL-6 (Homo sapiens, HAECT1) of 455 nM. For the same molecule, in the test on IL-6 (Homo sapiens), the Emax was determined as 94%.
Take `CCC1c2ccc(F)n2-c2ccc(F)cc2N1S(=O)(=O)c1ccc(O)cc1` (stereo not drawn) [Example 23, 4-[(4-ethyl-1,7-difluoropyrrolo[1,2-a]quinoxalin-5-(4H)-yl)sulfonyl]phenol]: in the test with creatine kinase, the “CK Efficacy” value worked out at 52%. In addition, in the test on IL-6, the IC50 stood at 6.6 nM and the “IL-6 Efficacy” value is 162%.
`CC[C@H]1c2cccn2-c2ccc(Br)cc2N1C(=O)c1ccc(O)cc1` [111 (S), 4-{[(4S)-7-bromo-4-ethylpyrrolo[1,2-a]quinoxalin-5(4H)-yl]carbonyl}phenol]: in the test on IL-6 (Homo sapiens, HAECT1), the IC50 came to 1090 nM. The Emax with IL-6 (Homo sapiens) was 65%.
For `CC(C)(C)C1c2cccn2-c2ccc(Br)cc2N1C(=O)c1ccc(O)cc1O` (stereo not drawn) [Example 117, 4-[(7-bromo-4-tert-butylpyrrolo[1,2-a]quinoxalin-5(4H)-yl)carbonyl]benzene-1,3-diol], in the test with creatine kinase, the EC50 was 33 nM and the Emax was determined as 42%. This molecule registered an IC50 in the test with IL-6 (Homo sapiens, HAECT1) of 9 nM. The Emax with IL-6 (Homo sapiens) worked out at 90%.
The corresponding values for `CC[C@@H]1c2cccn2-c2ccc(Br)cc2N1C(=O)c1ccc(O)cc1` [111 (R), 4-{[(4R)-7-bromo-4-ethylpyrrolo[1,2-a]quinoxalin-5(4H)-yl]carbonyl}phenol] are 117 nM, 40%, 46 nM and 87%.
In turn, `C[C@H]1c2cccn2-c2ccc(F)cc2N1C(=O)c1cccc(O)c1` [131 (S), 3-{[(4S)-4-methyl-7-fluoropyrrolo[1,2-a]quinoxalin-5(4H)-yl]carbonyl}phenol] yielded an IC50 in the test on IL-6 (Homo sapiens, HAECT1) of 1460 nM. Further, in the test on IL-6 (Homo sapiens), the Emax is 69%.
In turn, `CCC1c2cccn2-c2ccc(Br)cc2N1C(=O)c1ccc(O)cc1` (stereo not drawn) [Example 110, 4-[(7-bromo-4-ethylpyrrolo[1,2-a]quinoxalin-5(4H)-yl)carbonyl]phenol] yielded an IC50 in the test on IL-6 (Homo sapiens, HAECT1) of 369 nM. The Emax in the test with IL-6 (Homo sapiens) came to 78%.
Turning to `CC[C@H]1c2cccn2-c2ccc(F)cc2N1C(=O)c1ccc(O)cc1O` [121 (S), 4-{[(4S)-4-ethyl-7-fluoropyrrolo[1,2-a]quinoxalin-5(4H)-yl]carbonyl}benzene-1,3-diol], in the test with creatine kinase, the EC50 was 64 nM and the Emax came to 32%. This molecule came in with an IC50 in the test with IL-6 (Homo sapiens, HAECT1) of 72 nM. In addition, in the test with IL-6 (Homo sapiens), the Emax is 95%.
For the molecule `CC[C@H]1c2cccn2-c2ccc(F)cc2N1C(=O)c1ccc(O)cc1` [119 (S), 4-{[(4S)-4-ethyl-7-fluoropyrrolo[1,2-a]quinoxalin-5(4H)-yl]carbonyl}phenol], in the test with IL-6 (Homo sapiens, HAECT1), the IC50 came out at 101 nM. In the test on IL-6 (Homo sapiens), the Emax amounted to 79%.
Turning to `CC[C@H]1c2cccn2-c2ccc(Cl)cc2N1C(=O)c1ccc(O)cc1O` [125 (S), 4-{[(4S)-7-chloro-4-ethylpyrrolo[1,2-a]quinoxalin-5(4H)-yl]carbonyl}benzene-1,3-diol], the EC50 in the test with creatine kinase came out at 68 nM. Besides, the Emax came out at 15% in the test with creatine kinase and 81% in the test on IL-6 (Homo sapiens). In addition, the IC50 with IL-6 (Homo sapiens, HAECT1) stood at 1100 nM.
Turning to `CC(C)(C)C1c2cccn2-c2ccc(Br)cc2N1C(=O)c1cccc(O)c1` (stereo not drawn) [Example 114, 3-[(7-bromo-4-tert-butylpyrrolo[1,2-a]quinoxalin-5(4H)-yl)carbonyl]phenol], the IC50 in the test with IL-6 (Homo sapiens, HAECT1) was determined as 441 nM. Further, the Emax in the test with IL-6 (Homo sapiens) came to 38%.
For `CC1c2cccn2-c2ccc(Br)cc2N1C(=O)c1ccc(O)cc1` (stereo not drawn) [Example 108, 4-[(7-bromo-4-methylpyrrolo[1,2-a]quinoxalin-5(4H)-yl)carbonyl]phenol], in the test with creatine kinase, the EC50 was determined as 18 nM and the Emax worked out at 7%. In the test on IL-6 (Homo sapiens, HAECT1), half-maximal inhibition (IC50) required 53 nM. In addition, the Emax in the test on IL-6 (Homo sapiens) came out at 118%.
The molecule `C[C@@H]1c2cccn2-c2ccc(F)cc2N1C(=O)c1cccc(O)c1` [131 (R), 3-{[(4R)-4-methyl-7-fluoropyrrolo[1,2-a]quinoxalin-5(4H)-yl]carbonyl}phenol] had a 50% inhibitory concentration (IC50) in the test with IL-6 (Homo sapiens, HAECT1) of 179 nM. Further, in the test on IL-6 (Homo sapiens), the Emax came to 103%.
The corresponding values for `CC(C)(C)[C@@H]1c2cccn2-c2ccc(Br)cc2N1C(=O)c1cccc(O)c1` [115 (R), 3-{[(4R)-7-bromo-4-tert-butylpyrrolo[1,2-a]quinoxalin-5(4H)-yl]carbonyl}phenol] are 647 nM and 82%.
As to `CC[C@H]1c2cccn2-c2ccc(F)cc2N1C(=O)c1cccc(O)c1` [127 (S), 3-{[(4S)-4-ethyl-7-fluoropyrrolo[1,2-a]quinoxalin-5(4H)-yl]carbonyl}phenol], in the test on creatine kinase, the EC50 is 33 nM and the Emax came to 33%. Further, in the test with IL-6 (Homo sapiens, HAECT1), the IC50 worked out at 1330 nM. Further, in the test with IL-6 (Homo sapiens), the Emax amounted to 41%.
On the same counts, the results for `CC[C@H]1c2ccc(C#N)n2-c2ccc(F)cc2N1C(=O)c1ccc(O)cc1` [Example 129, (4S)-4-ethyl-7-fluoro-5-(4-hydroxybenzoyl)-4,5-dihydropyrrolo[1,2-a]quinoxaline-1-carbonitrile] are 636 nM, -7%, 29 nM and -77%.
On the same counts, the results for `CC[C@@H]1c2cccn2-c2ccc(F)cc2N1C(=O)c1ccc(O)cc1O` [121 (R), 4-{[(4R)-4-ethyl-7-fluoropyrrolo[1,2-a]quinoxalin-5(4H)-yl]carbonyl}benzene-1,3-diol] are 13 nM, 36%, 1.6 nM and 108%.
On the same counts, the results for `CC[C@@H]1c2cccn2-c2ccc(F)cc2N1C(=O)c1ccc(O)cc1` [119 (R), 4-{[(4R)-4-ethyl-7-fluoropyrrolo[1,2-a]quinoxalin-5(4H)-yl]carbonyl}phenol] are 11 nM, 27%, 8 nM and 95%.
In the case of `CC1c2cccn2-c2ccc(Br)cc2N1C(=O)c1ccc(O)cc1O` (stereo not drawn) [Example 109, 4-[(7-bromo-4-methylpyrrolo[1,2-a]quinoxalin-5(4H)-yl)carbonyl]benzene-1,3-diol], in the test on creatine kinase, the EC50 came to 398 nM and the Emax was 40%. Further, the IC50 in the test on IL-6 (Homo sapiens, HAECT1) was found to be 42 nM. Also, the Emax in the test on IL-6 (Homo sapiens) was 128%.
The molecule `CC1c2cccn2-c2ccc(Br)cc2N1C(=O)c1cccc(O)c1` (stereo not drawn) [Example 106, 3-[(7-bromo-4-methylpyrrolo[1,2-a]quinoxalin-5(4H)-yl)carbonyl]phenol] yielded an IC50 in the test on IL-6 (Homo sapiens, HAECT1) of 10 nM. Moreover, the Emax in the test with IL-6 (Homo sapiens) came out at 54%.
Regarding `CCC1c2cccn2-c2cc(F)c(F)cc2N1S(=O)(=O)c1ccc(OS(N)(=O)=O)cc1` (stereo not drawn) [Example 105, 4-{4-ethyl-7,8-difluoropyrrolo[1,2-a]quinoxalin-5(4H)-yl]sulfonyl}phenyl sulfamate], the “CK Efficacy” value with creatine kinase came to 49%. Moreover, in the test on IL-6, the IC50 was 2 nM and the “IL-6 Efficacy” value is on record as 116%.
`CC[C@@H]1c2ccc(C#N)n2-c2ccc(F)cc2N1C(=O)c1ccc(O)cc1` [Example 128, (4R)-4-ethyl-7-fluoro-5-(4-hydroxybenzoyl)-4,5-dihydropyrrolo[1,2-a]quinoxaline-1-carbonitrile] showed an IC50 with IL-6 (Homo sapiens, HAECT1) of 64 nM. Also, in the test with IL-6 (Homo sapiens), the Emax was 111%.
